In ChEMBL document CHEMBL1136123, “3,5,6-Trisubstituted naphthostyrils as CDK2 inhibitors” (Bioorg Med Chem Lett, 2003) one finds IC50 data, which are given here for 26 compounds.

The test system of experiment [1] is RKO. Briefly: Inhibitory concentration against human colon cancer (RKO) cell line proliferation. The experiment is classed as functional, cell-based.
The subject of experiment [2] is MDA-MB-435. Briefly: Inhibitory concentration against human breast carcinoma cell line proliferation. Format: functional, cell-based.
The target in experiment [3] is Cyclin-dependent kinase 2 (Homo sapiens, UniProt P24941). Briefly: In vitro inhibition of Cyclin-dependent kinase 2.
Experiment [4] in a line: Inhibition of blocked progression of G0 synchronized cell into S phase using G1-S cell cycle progression assay. Format: functional.

pIC50: −log10 of the molar value.

A word on the pIC50: it is −log10 of the IC50, conventionally taken in molar units. A higher pIC50 goes with a low IC50. For `NCCS(=O)(=O)c1cc(-c2ccc[nH]2)c2c3c(ccc(F)c13)NC2=O`, the pIC50 in experiment [1] is 6.37; in experiment [2], 5.97; in experiment [3], 7.64.
The matching figures for `O=C1Nc2ccc(F)c3c(S(=O)(=O)CCO)cc(-c4ccc[nH]4)c1c23`: 5.92, 5.49 and 7.82.
In the case of `CCOc1cc(-c2ccc[nH]2)c2c3c(ccc(F)c13)NC2=O`, in experiment [3], the pIC50 is 7.11.
Regarding `NCCSc1cc(-c2ccc[nH]2)c2c3c(ccc(F)c13)NC2=O`, the pIC50 is 7.00 in experiment [1], 6.09 in experiment [4], 6.51 in experiment [2] and 8.52 in experiment [3].
The matching figures for `NCCOc1cc(-c2ccc[nH]2)c2c3c(ccc(F)c13)NC2=O`: 6.96, 6.04, 6.42 and 7.92.
The like results for `O=C1Nc2ccc(F)c3ccc(-c4ccc[nH]4)c1c23` were, in that order, 5.23, < 4.52, 5.64 and 6.69.
As to `CC(=O)NCCNc1cc(-c2ccc[nH]2)c2c3c(ccc(F)c13)NC2=O`, in experiment [3], the pIC50 is 6.90.
The compound `NCCCc1cc(-c2ccc[nH]2)c2c3c(ccc(F)c13)NC2=O` gave a negative logarithm of the IC50 (pIC50) in experiment [3] of 8.15.
The same measure, in the same setting: the same measure for `N#CCCc1cc(-c2ccc[nH]2)c2c3c(ccc(F)c13)NC2=O`: 8.30.
For `O=C1Nc2ccc(F)c3c(SC[C@@H]4CCCN4)cc(-c4ccc[nH]4)c1c23`, the results for the pIC50 in experiment [1], in experiment [2] and in experiment [3] were 7.22, 6.68 and 7.74, respectively.
For `NCC[S+]([O-])c1cc(-c2ccc[nH]2)c2c3c(ccc(F)c13)NC2=O` (centres undefined), the pIC50 was 6.38 in experiment [1], 5.73 in experiment [4], 5.92 in experiment [2] and 7.55 in experiment [3].
`O=C1Nc2ccc(F)c3c(OCCCO)cc(-c4ccc[nH]4)c1c23` had a pIC50 in experiment [3] of 7.74.
As to `O=C1Nc2ccc(F)c3c(S[C@H]4CCNC4)cc(-c4ccc[nH]4)c1c23`, the pIC50 in experiment [1] was 7.15; in experiment [2], 6.92; in experiment [3] it was 8.30.
On to `O=C1Nc2ccc(F)c3c(OCCO)cc(-c4ccc[nH]4)c1c23`, for which the pIC50 in experiment [1] is 6.30; in experiment [4], 4.96; in experiment [2], 6.24; in experiment [3], 7.21.
The matching figures for `NCCCNc1cc(-c2ccc[nH]2)c2c3c(ccc(F)c13)NC2=O`: 6.92, 5.69, 7.15 and 7.32.
Regarding `CC(=O)OCCCOc1cc(-c2ccc[nH]2)c2c3c(ccc(F)c13)NC2=O`, the pIC50 in experiment [3] is < 6.00.
`CCc1cc(-c2ccc[nH]2)c2c3c(ccc(F)c13)NC2=O` had a pIC50 in experiment [3] of 7.14.
The same measure, in the same setting: the same measure for `Cc1cc(-c2ccc[nH]2)c2c3c(ccc(F)c13)NC2=O`: 6.42.
With `NCCNc1cc(-c2ccc[nH]2)c2c3c(ccc(F)c13)NC2=O`, in experiment [4], the pIC50 was 5.83.
Take `CC(C)(N)CNc1cc(-c2ccc[nH]2)c2c3c(ccc(F)c13)NC2=O`: the pIC50 was 6.96 in experiment [1], 5.78 in experiment [4], 6.80 in experiment [2] and 7.19 in experiment [3].
For the compound `O=C1Nc2ccc(F)c3c(SCCO)cc(-c4ccc[nH]4)c1c23`, the pIC50 in experiment [1] is 5.83; in experiment [4], 5.56; in experiment [2], 5.76; in experiment [3], 7.85.
Consider `CC(C)Cc1cc(-c2ccc[nH]2)c2c3c(ccc(F)c13)NC2=O`, for which the pIC50 in experiment [3] is 6.91.
Regarding `O=C1Nc2ccc(F)c3c(NCCO)cc(-c4ccc[nH]4)c1c23`, the pIC50 was 6.13 in experiment [1], 5.62 in experiment [4], 6.21 in experiment [2] and 7.27 in experiment [3].
The like results for `COc1cc(-c2ccc[nH]2)c2c3c(ccc(F)c13)NC2=O` were, in that order, 6.12, 5.15, 6.05 and 7.74.
The compound `CC(C)(C)OC(=O)NCCNc1cc(-c2ccc[nH]2)c2c3c(ccc(F)c13)NC2=O` showed a pIC50 in experiment [3] of 5.26.
Still for that read-out and setting: then `CCN(CC)CCNc1cc(-c2ccc[nH]2)c2c3c(ccc(F)c13)NC2=O`, with 6.53.
